Laboratory results: patent publication US9771394B2, “Antimicrobial polymyxins for treatment of bacterial infections” (priority 2014, dated 2017)
pIC50: −log10 of the molar value. Where “and” joins values, the source holds several entries; their conditions need not be identical. Equal entries are not always repeated. Where two headings read alike, the source gives them in different places. Marks after values point to notes of the source that are not given here. Positions of bridges follow the written chain, without caps; N, C: chain ends. Non-standard residues stand in square brackets, D forms with d. Residues, ends and D or L forms follow the SMILES beside them. ξ: configuration not given here. *: point of attachment. Thr(3ξ) = CC(O)[C@H](N)C(=O)O; X2 = CCCC(C)OC(=O)CCC(=O)*; Dab = NCC[C@H](N)C(=O)O; X4 = CCCCOC(=O)CCC(=O)*

What was measured:
K. pneumoniae KPN1004 = assay type: cell-based, Klebsiela pneumoniae
Excerpt: (§1) In vitro activity of compounds provided herein may be assessed by standard testing procedures such as the determination of minimum inhibitory concentration (MIC, μg/mL) just as described in “Methods for Dilution Antimicrobial Susceptibility Tests for Bacteria That Grow Aerobically; Approved Standard—Ninth Edition,” published in 2012 by the Clinical and Laboratory Standards Institute, Wayne, Pa., USA. Thus, bacterial colonies grown overnight on Mueller-Hinton Agar plate were selected and suspended in sterile saline to a turbidity of about 80% transmittance, as measured by a spectrophotometer. The suspension was diluted 200-fold with cation-adjusted Mueller-Hinton broth to serve as the inoculum for testing. Two-fold serial dilutions of the test compound were performed in 96-well master plate to arrive at desired concentration. Samples of 10 microliter from each well of the master plate were transferred into respective wells of 96-well assay plate. Bacterial inoculum (90 microliter) was introduced into each well of the assay plate. The assay plate was placed in the incubator at 35° C. for about 24 h (without agitation) followed by the MIC determination. MIC values were determined based on the presence or absence of bacterial growth in wells at the given test agent concentration. MIC value is defined as the lowest concentration of test antibiotic that prevents visible bacterial growth.
(§2) The useful activity of exemplary compounds described herein against Gram-negative pathogens Pseudomonas aeruginosa, Escherichia coli, or Klebsiela pneumoniae is illustrated by the MIC data of Table 1.

E. coli WECO 1003 = assay type: cell-based, Escherichia coli
Excerpt: as §1, §2

human HK-2 cell = test: Human HK-2 cell cytotoxicity assay (in vitro nephrotoxicity); assay type: cell-based
Excerpt: (§3) Nephrotoxicity of polymyxins could be determined in vitro using human renal […] (HK-2) cytotoxicity assay, analogously to that described, for example, by Keirstead et al. in Toxicol. Sci., 2014, vol. 137, pp. 278-291. In vivo, nephrotoxicity could be determined using urine biomarker assays, such as clinically validated neutrophil gelatinase-associated lipocalin (NGAL) assay described, for example by Devarajan in Scand. J. Clin. Lab. Invest. Suppl., 2008, vol. […], pp. 89-94.

P. aeruginosa PAE 1001 = assay type: cell-based, Pseudomonas aeruginosa
Excerpt: as §1, §2

[1] = Stability in human plasma at 37° C.; assay type: in vitro ADME; details: for remaining at 1 h, 25 μM / remaining at 4 h, 25 μM: human, plasma
Experimental: Exemplary compounds of this invention were tested for stability in human plasma at 37° C., replicating in vivo conditions of mammalian blood. Plasma stability for select compounds was performed as follows. Human plasma (K2 EDTA) was obtained from Bioreclamation. The assay was carried out in 96-well microtiter plates. Test compounds were incubated in duplicate at 37° C. in the presence of plasma. Reaction mixtures (25 μL) contained a final concentration of 25 μM test compound. The extent of metabolism was calculated as the disappearance of the test compound over time. Eucatropine was included as a positive control to verify assay performance. At each given time point, 100 μL of quench solution (100% MeCN with 0.1% HCOOH) with internal standard was transferred to each well. Plates were sealed, vortexed, and centrifuged at 4° C. for 15 minutes at 4,000 rpm. The supernatant was transferred to fresh plates for LC/MS/MS analysis. The formation of a potential metabolite was monitored in all samples. The samples were analyzed on LC/MS/MS using an AB Sciex API 4000 instrument, coupled to a Shimadzu LC-20AD LC Pump system. Analytical samples were separated using a Waters Atlantis T3 dC18 reverse phase HPLC column (20 mm×2.1 mm) at […] a flow rate of 0.5 mL/min, eluting with 0.1% aq. HCOOH and 0.1% HCOOH in MeCN (using gradient from 2% to 98% of the latter). Remaining test compounds were quantified via MS/MS ion current.

E. coli = E. coli septicemia (systemic) mouse model, IV dosing; assay type: in vivo, Escherichia coli; details: PMB values are side-by-side comparator; for number (A) of surviving animals out of total (B) mice, A/B: at 5 mg/kg
Excerpt: (§4) A lower ED50 value indicates a higher therapeutic efficacy of the drug. The number of surviving animals (from the total number of infected animals used at a given drug dose) is another indicator of efficacy. […] In thigh and lung infection models, a greater reduction in the bacterial colony-forming units (CFU) indicates stronger beneficial therapeutic effect (more bacterial eradication), while a lower CFU reduction or an increase in CFU value indicates a lower effect (less bacterial eradication), or an absence of the therapeutic effect.

P. aeruginosa [2] = test: P. aeruginosa lung infection (pneumonia) mouse model, SC dosing; assay type: in vivo, Pseudomonas aeruginosa; details: for Relative CFU count, vs. PMB: mouse lung infection, 10 mg/kg; for P. aeruginosa Lung infection model ΔlogCFU at 10 mg/kg: mouse, CFU change at 24 h vs starting inoculum
Excerpt: as §4

P. aeruginosa [3] = test: P. aeruginosa thigh infection mouse model, IV dosing; assay type: in vivo, Pseudomonas aeruginosa; details: CFU change at 12 h vs no treatment control, PMB values in parenthesis side-by-side
Excerpt: as §4

[4] = tested on: neutrophil gelatinase-associated lipocalin (NGAL); test: Rat urine NGAL biomarker assay (in vivo nephrotoxicity); details: repeated dose, 25 mg/kg/day QID, SC, Low = signal similar to the background
Excerpt: as §3

[5] = 35° C., about 24 h, cation-adjusted Mueller-Hinton broth

Row | Molecule | Antibacterial activity (MIC) K. pneumoniae KPN1004 (K. pneumoniae KPN1004; KPN1004, 24 h) [µg/mL] | Antibacterial activity (MIC) E. coli WECO 1003 (E. coli WECO 1003; WECO 1003, 24 h) [µg/mL] | HK-2 cytotoxicity class (human HK-2 cell) | pIC50 (human HK-2 cell) | Antibacterial activity (MIC) P. aeruginosa PAE 1001 (P. aeruginosa PAE 1001; PAE 1001, 24 h) [µg/mL] | Relative CFU count, vs. PMB (P. aeruginosa [2]) | P. aeruginosa Lung infection model ΔlogCFU at 10 mg/kg (P. aeruginosa [2]) | remaining at 1 h, 25 μM [1] [%] | remaining at 4 h, 25 μM [1] [%] | P. aeruginosa Thigh model, IV dosing ΔlogCFU at 5 mg/kg (P. aeruginosa [3]) | other results
1 | CC(C)C[C@@H]1NC(=O)[C@@H](Cc2ccccc2)NC(=O)[C@H](CCN)NC(=O)[C@@H](NC(=O)[C@H](CCN)NC(=O)[C@@H](N)[C@@H](C)O)CCNC(=O)[C@H]([C@@H](C)O)NC(=O)[C@H](CCN)NC(=O)[C@H](CCN)NC1=O [Reference Example 40, Polymyxin B nonapeptide, reference compound] (H-T[Dab][Dab][Dab][dF]L[Dab][Dab]T; lactam 3-C) | >32 | >32 | Class 4 | < 3.70 | >32 |  |  |  |  |  | 
2 | polymyxin B [reference compound] |  |  |  |  |  | 1 | +2.61 |  |  |  | Compound remaining, % T = 1.0 h ([1]; human plasma, 37° C., 25 μM, 1.0 h): 100^a^ %; Compound remaining, % T = 4.0 h ([1]; human plasma, 37° C., 25 μM, 4.0 h): 100^a %; E. coli Systemic model, IV dosing ED50 (E. coli; listed as PMB): 4.6 mg/kg and 3.9 mg/kg and 2.5 mg/kg; E. coli Systemic model, IV dosing ED50 (E. coli; listed as Polymyxin B (PMB)): 4 to 7 mg/kg; number (A) of surviving animals out of total (B) mice, A/B (E. coli; listed as PMB): 2/6 and 5/6 and 3/6; Antibacterial activity (MIC) K. pneumoniae KPN1004 (K. pneumoniae KPN1004; [5]): 2-4^a μg/mL; Antibacterial activity (MIC) E. coli WECO 1003 (E. coli WECO 1003; [5]): 2-4^a μg/mL; HK-2 cytotoxicity class (human HK-2 cell; HK-2 cytotoxicity, Eurofins Cerep): Class 1; pIC50 (human HK-2 cell; HK-2 cytotoxicity, Eurofins Cerep, read-out: In vitro: human HK-2 cell assay IC50): 4.09; Antibacterial activity (MIC) P. aeruginosa PAE 1001 (P. aeruginosa PAE 1001; [5]): 2-4^a μg/mL; P. aeruginosa Thigh model, IV dosing ΔlogCFU at 5 mg/kg (P. aeruginosa [3]; listed as Polymyxin B (PMB)): −1.49 to −3.33; In vivo: rat urine biomarker NGAL [4]: High: above detection
3 | CCCCOC(=O)CCC(=O)N[C@@H](CCN)C(=O)N[C@H](C(=O)N[C@@H](CCN)C(=O)N[C@H]1CCNC(=O)[C@H](C(C)O)NC(=O)[C@H](CCN)NC(=O)[C@H](CCN)NC(=O)[C@H](CC(C)C)NC(=O)[C@@H](Cc2ccccc2)NC(=O)[C@H](CCN)NC1=O)C(C)O (stereo partly shown) [Example 7] (X4-[Dab][Thr(3ξ)][Dab][Dab][Dab][dF]L[Dab][Dab][Thr(3ξ)]; lactam 4-C) | 2 | 4 |  |  | 4 |  |  | 49 | 15 | −0.50 | 
4 | CCCC(C)OC(=O)CCC(=O)N[C@@H](CCN)C(=O)N[C@H](C(=O)N[C@@H](CCN)C(=O)N[C@H]1CCNC(=O)[C@H](C(C)O)NC(=O)[C@H](CCN)NC(=O)[C@H](CCN)NC(=O)[C@H](CC(C)C)NC(=O)[C@@H](Cc2ccccc2)NC(=O)[C@H](CCN)NC1=O)C(C)O (stereo partly shown) [Example 18] (X2-[Dab][Thr(3ξ)][Dab][Dab][Dab][dF]L[Dab][Dab][Thr(3ξ)]; lactam 4-C) | 4 | 2 | Class 4 | < 3.70 | 2 | 4.8 × 10^−6 | −2.70 | 66 | 18 | −1.29 | E. coli Systemic model, IV dosing ED50 (E. coli): 7.5 mg/kg; number (A) of surviving animals out of total (B) mice, A/B (E. coli): 3/6
